From patent US20240342239A1, “TREATMENT OF NON-CYSTIC FIBROSIS BRONCHIECTASIS” (Zambon S.P.A., priority 2021, published 2024)
Entries after “also recorded” stand apart in the source; their conditions may differ.

Legend:
NCFB patients = settings: cited from earlier work
[1] = system: subjects with NCFB chronically infected with P. aeruginosa; test: PROMIS 1 Phase III clinical study: NCFB pulmonary exacerbations, inhaled CMS via I-neb vs placebo; format: in vivo, human; settings: for hazard ratio, time to first NCFB pulmonary exacerbation: CMS vs placebo, Cox proportional hazard model; for rate ratio of CMS relative to placebo, NCFB pulmonary exacerbation annual rate: LS Mean
Experimental: As used herein the term “pulmonary exacerbation” in a patient refers to the presence concurrently of at least 3 of the following 8 symptoms/signs for at least 24 hours: • increased cough; • increased sputum volume and/or consistency; • increased sputum purulence; • new or increased haemoptysis; • increased wheezing; • increased dyspnoea; • increased fatigue/malaise; • episodes of fever (temperature≥38° C.) • and it is clinically determined that the subject requires and is prescribed systemic antibiotic therapy. A new pulmonary exacerbation is only considered to occur if there are at least 14 days between the end of the course of systemic antibiotics and the onset of new qualifying symptoms. (Note: A pulmonary exacerbation is reported as an Adverse Event or serious AE [SAE]).
A “severe” pulmonary exacerbation is herein defined a pulmonary exacerbation requiring intravenous antibiotics and/or hospitalisation.
A supportive analysis has been conducted using an alternative definition of NCFB pulmonary exacerbation. The re-classification of exacerbations has been conducted in a blinded fashion (before database lock). The alternative definition of pulmonary exacerbations used will be deterioration in three or more of the following key symptoms for at least 48 hours: • Cough • Sputum volume and/or consistency • Sputum purulence • Breathlessness and/or exercise tolerance (dyspnoea) • Fatigue and/or malaise • Haemoptysis • And: • a physician determines a change in bronchiectasis treatment is required when other potential causes of clinical deterioration have been discounted.
The number of NCFB pulmonary exacerbations during the treatment period has been analysed using a Poisson regression model allowing for over-dispersion including treatment, pooled sites and use of stable concomitant therapy with oral macrolides as fixed effects and log-time on trial as an offset.
The number and the percentage of subjects with NCFB pulmonary exacerbations, the number of pulmonary exacerbations and the total follow-up time in years have been summarised by treatment group. The adjusted yearly mean exacerbation rates in each treatment group and the adjusted rate ratio with their 95% CIs has been estimated by the model.
For the analysis, 2 pulmonary exacerbations have been considered as a single episode in cases where the second exacerbation starts less than 14 days after the end of the antibiotic therapy (oral or intravenous) for the first pulmonary exacerbation.
The time to the first NCFB pulmonary exacerbation and the time to the first severe NCFB pulmonary exacerbation has been calculated as the time in days from the date of the first dose of IMP to the date at which the first pulmonary exacerbation occurs (i.e. date at which the first pulmonary exacerbation occurs—date of the first dose+1). A […] has been used to compare the treatment groups. Subjects completing the trial without NCFB pulmonary exacerbations or who are discontinued prematurely without exacerbations, will be considered as censored at the time of their last follow-up. […]
The primary variable for this trial is the mean annual NCFB pulmonary exacerbation rate (frequency of pulmonary exacerbations) over 12 months.

[2] = system: subjects with NCFB chronically infected with P. aeruginosa; test: PROMIS 1: quality of life by Saint George's Respiratory Questionnaire (SGRQ); format: in vivo, human; settings: at the end of the CMS treatment
Excerpt: The SGRQ total score and domain scores (Symptoms, Activity and Impact scores) has been summarised at each visit by treatment group using descriptive statistics. Changes from baseline (Visit 2) have been also summarised for each post-baseline visit by treatment group. Scores have been computed according to the SGRQ manual.
SGRQ total score has been analysed using a linear mixed model for repeated measures including treatment, visit, treatment-by-visit interaction, use of stable concomitant therapy with oral macrolides and pooled sites as fixed effects and baseline value as covariate. An unstructured covariance matrix has been assumed and the Kenward-Roger adjustment has been used for the degrees of freedom. The least square means in each treatment group, the least square mean differences between treatments, their 95% CIs and associated p-values at each visit will be estimated by the model.
It is described e.g. in U.S. Pat. No. 6,367,470.

Pseudomonas aeruginosa = test: PROMIS 1: P. aeruginosa density in sputum; format: in vivo; settings: for Mean change from baseline in P. aeruginosa density: mITT
Excerpt: Least square means in each treatment group, least square mean difference between treatments, their 95% CIs and associated p-values have been estimated.
Summary statistics of the P. aeruginosa density (log 10 CFU/g sputum) and change from baseline (Visit 2) will be provided by treatment group for each trial visit.
Results of the quantitative analysis for P. aeruginosa density will be presented as colony forming units (CFU) count per gram sputum.

[3] = system: bronchiectasis patients with P. aeruginosa; settings: cited from earlier work; for time to first exacerbation compared to placebo: 1 MU twice daily through the I-neb, up to 6 months (PPCTP/001, Haworth 2014)
[4] = sensitivity analysis, alternative definition of exacerbation

Compound: O=C(O)c1cn(C2CC2)c2cc(N3CCNCC3)c(F)cc2c1=O [ciprofloxacin]
- trial outcome, primary endpoints (NCFB patients; ORBIT-3 and RESPIRE-2 trials): failed to achieve their primary endpoints
- trial outcome, time of first exacerbation and rate of exacerbations vs placebo (NCFB patients; ORBIT-4 and RESPIRE-1 trials): showed clinical benefit

Compound: colistimethate sodium [CMS]
- subjects with severe NCFB pulmonary exacerbations ([1]; 19/176 subjects): 10.8%
- LS mean NCFB pulmonary exacerbation annual rate ([1]; PP Population): 0.491
- LS mean rate ratio of CMS relative to placebo ([1]; PP Population): 0.583
- reduction in pulmonary exacerbation rate vs placebo ([1]; PP Population): 42%
- mean annual exacerbation rate (LS Mean) ([1]; adherent subjects (adherence>80%)): 0.494
- median time to first severe NCFB pulmonary exacerbation, 25th and 75th percentile ([1]; human, in vivo): not reached
- reduction in the rate of severe pulmonary exacerbations compared to placebo ([1]; human, in vivo): 59%
- reduction in the risk of the first exacerbation event compared to placebo ([1]; mITT): 41%
- annual rate of exacerbations ([1]; mITT, CMS 1 MIU by I-neb twice a day, 12 months): 0.58 per patient per year
- hazard ratio, time to first NCFB pulmonary exacerbation ([1]; mITT): 0.590
- hazard ratio, time to first NCFB pulmonary exacerbation ([1]; mITT, listed as CMS I-neb): 0.59
- median time to first NCFB pulmonary exacerbation ([1]; mITT, from first dose of IMP): not reached
- subjects who experienced a pulmonary exacerbation during the study ([1]; mITT, n=68): 38.6%
- reduction in the annual rate of pulmonary exacerbations relative to placebo ([1]; mITT, primary analysis): 39%
- rate ratio of CMS relative to placebo, NCFB pulmonary exacerbation annual rate ([1]; mITT, primary analysis): 0.612
- rate ratio of CMS relative to placebo, NCFB pulmonary exacerbation annual rate ([1]; mITT, primary analysis, listed as CMS I-neb): 0.61
- LS Mean rate ratio, pulmonary exacerbations ([1]; post-hoc analyses with low-recruiting countries combined): 0.591
- LS mean NCFB pulmonary exacerbation annual rate ([1]; sensitivity analysis, alternative (ERS 2017) definition of exacerbation, mITT): 0.538
- LS mean rate ratio of CMS relative to placebo [1, 4]: 0.642
- reduction in pulmonary exacerbation rate vs placebo [1, 4]: 36%
- LS Mean severe NCFB pulmonary exacerbation annual rate ([1]; severe = requiring intravenous antibiotics and/or hospitalisation): 0.116
- LS Mean rate ratio of CMS relative to placebo, severe exacerbations ([1]; severe NCFB pulmonary exacerbations): 0.409
- treatment difference in SGRQ total score by LS means [2]: 4.552
- LS mean difference in P. aeruginosa density, CMS vs placebo (Pseudomonas aeruginosa; after 1 month): −1.620
- Mean change from baseline in P. aeruginosa density (Pseudomonas aeruginosa; Visit 3 (28 days)): −1.59 log10(CFU/mL)
- Mean change from baseline in P. aeruginosa density (Pseudomonas aeruginosa; Visit 5 (6 months)): −1.39 log10(CFU/mL)
- Mean change from baseline in P. aeruginosa density (Pseudomonas aeruginosa; Visit 6 (9 months)): −1.56 log10(CFU/mL)
- Mean change from baseline in P. aeruginosa density (Pseudomonas aeruginosa; Visit 7 (12 months/EOT)): −0.86 log10(CFU/mL)
- course of P. aeruginosa density under treatment (Pseudomonas aeruginosa; over the study): fell rapidly and remained suppressed; also recorded: falls rapidly and remains suppressed
- time to first exacerbation compared to placebo [3]: not statistically different from the placebo group
- frequency of adverse respiratory effects (cough, dyspnoea, bronchospasm, sore throat) ([3]; human, in vivo): at least 1 in 10 people
- admissions to emergency and days of hospitalization ([3]; observational study, 44 patients, 6 or 12 months, vs period preceding treatment (Lopez Gil Otero 2019)): reduced admissions to emergency and days of hospitalization

Compound: colistin
- time to first exacerbation compared to placebo [3]: not to be associated with a statistically significant improvement
